Results on 13 compounds are retold here after publication PMC12704139, “(±)-Rutacycoumarins A and B: two pairs of unprecedented coumarin enantiomers from the aerial part of Ruta graveolens L. and chemically synthesized” (Pharmaceutical Biology, 2025).

The target of assay [1] is T1, recombinant human MAO-B (Homo sapiens, UniProt P27338).
T1 construct: purchased Active Motif 31503
T1 sequence (P27338 1-520): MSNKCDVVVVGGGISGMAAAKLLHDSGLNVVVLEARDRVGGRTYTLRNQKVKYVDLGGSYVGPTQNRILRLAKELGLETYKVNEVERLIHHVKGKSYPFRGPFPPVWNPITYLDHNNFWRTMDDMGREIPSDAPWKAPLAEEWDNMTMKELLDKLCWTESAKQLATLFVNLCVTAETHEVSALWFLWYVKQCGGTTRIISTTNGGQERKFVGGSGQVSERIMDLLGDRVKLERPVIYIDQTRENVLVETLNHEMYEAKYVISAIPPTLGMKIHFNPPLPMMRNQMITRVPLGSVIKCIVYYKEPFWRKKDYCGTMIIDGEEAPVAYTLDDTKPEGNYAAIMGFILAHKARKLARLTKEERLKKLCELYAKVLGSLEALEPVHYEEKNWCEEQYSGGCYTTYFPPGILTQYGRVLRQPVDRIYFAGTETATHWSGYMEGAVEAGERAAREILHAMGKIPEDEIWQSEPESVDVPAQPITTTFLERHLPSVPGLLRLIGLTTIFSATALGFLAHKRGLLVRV
The assay is described as follows: Recombinant human MAO-B enzyme inhibition assay. It counts as biochemical.
Experimental: All compounds were tested with technical replicates. Compounds (100× final concentration) in 384-well source plates were dispensed (200 nL per well) into assay plates. Min/Max control wells received 200 µL of 100% DMSO. All wells except the Min controls were supplemented with 10 μL of 10 nM MAO-B (Min controls received buffer instead). Plates were centrifuged at 1000 × g for 1 min and incubated at 25 °C for 15 min. Then, 10 μL of 0.5 μM substrate was added to each well. After further centrifugation, the plates were protected from light and incubated for 60 min. The reaction was terminated by adding 20 μL of stop solution, followed by centrifugation and a 20-min equilibration period. Fluorescence was measured using an EnVision microplate reader. The inhibition percentage was calculated as follows: Inhibition (%) = [signal (max)− signal (sample)]/[signal (max) − signal (min)] × 100. Dose–response curves were generated by plotting the logarithm of compound concentration (X-axis) against the percentage inhibition (Y-axis). Curve fitting was performed in GraphPad Prism 8 using the ‘log(inhibitor) vs. response -Variable slope’ model to determine the IC50 values for MAO-B inhibition.

Assay [2] deals with LPS-induced HepG2 cells. The assay is described as follows: ALT and AST in supernatant of LPS-induced HepG2 cells. Conditions: HepG2, 100 ng/mL LPS, compounds 10, 20, 40 μM; p < 0.01 vs. model. In kind it is cell-based, Homo sapiens. How it is done:
(§1) An LPS-induced hepatocyte injury model was established in HepG2 cells by treatment with 100 ng/mL LPS, using silymarin as a positive control. After treatment with test compounds at concentrations of 10, 20, and 40 μM, the cell culture supernatant was collected and centrifuged at 1000 × g for 15 min at 4 °C. The levels of alanine aminotransferase (ALT) and aspartate aminotransferase (AST) in the supernatant were quantified using commercial assay kits according to the manufacturer’s instructions. Absorbance was measured at 510 nm using a microplate reader, and results are expressed in units per liter (U/L). Additionally, the concentrations of interleukin-4 (IL-4), interleukin-10 (IL-10), and tumor necrosis factor-α (TNF-α) in the supernatant were determined by enzyme-linked immunosorbent assay (ELISA) using corresponding commercial kits. All procedures were performed in strict accordance with the manufacturer’s protocols. Cytokine levels are reported in picograms per milliliter (pg/mL), as calculated from the respective standard curves.
Silymarin was used as a positive control. The supernatant of HepG2 cells was collected from different experimental groups and separated by centrifugation (4 °C, 1000 rpm, 15 minutes). The levels of ALT and AST in the supernatant were determined following the manufacturer's instructions provided with the commercial assay kits. The optical density (OD) values of each well were measured at a wavelength of 510 nm using a microplate reader. These values are expressed in units per liter (U/L) or millimoles per liter (mmol/L).

Assay [3] has as its system LPS-induced HepG2 cells. Briefly: IL-4, IL-10 and TNF-α in supernatant of LPS-induced HepG2 cells (ELISA). It counts as cell-based, Homo sapiens. Particulars: for LPS-induced inflammatory response (pro-inflammatory cytokines): HepG2, LPS. Here is the method:
as §1
The cell culture supernatant was collected and separated by centrifugation at 4°C and 1000 rpm for 15 minutes. Levels of IL-4, IL-10, and TNF-α in the supernatant were determined using enzyme-linked immunosorbent assay (ELISA), strictly following the manufacturer’s protocols provided with the corresponding commercial ELISA kits. These values were quantified in picograms per milliliter (pg/mL) based on the standard curves generated.
(In general: An ELISA detects its analyte on a solid surface through an enzyme-linked reagent.)

Assay [4] relates to human MAO-B (hMAO-B). More on the design: method as in Dhiman et al. [2018]. Conditions: ref Dhiman et al. [2018], cited from earlier work.
Assay [5] relates to hMAO-A. Set-up: method as in Seong et al. [2019]. Conditions: ref Seong et al. [2019], cited from earlier work; for isoform selectivity (in words): hMAO-A versus hMAO-B.
The test system of assay [6] is hMAO-B. More on the design: method as in Seong et al. [2019]. Particulars: ref Seong et al. [2019]; cited from earlier work.
Assay [7] has as its system hMAO. More on the design: method as in Seong et al. [2019]. Particulars: enzyme kinetic studies; ref Seong et al. [2019]; cited from earlier work.
Assay [8] concerns MAO. Set-up: method as in Kozioł et al. [2020]. Conditions: reference inhibitors at ∼3–5 μM; ref Kozioł et al. [2020]; cited from earlier work.
The test system of assay [9] is liver injury. More on the design: method as in He et al. [2024]. Particulars: suppressing TNF-α/JAK1/STAT3 signaling while enhancing IL-4/IL-10 production; ref He et al. [2024]; cited from earlier work.
Assay [10] has as its system human MAO-B. More on the design: method as in Kozioł et al. [2020]. Conditions: 6.17 μM; ref Kozioł et al. [2020]; cited from earlier work.
Assay [11] has as its system MAO-A. Set-up: method as in Kozioł et al. [2020]. Conditions: 6.17 μM; ref Kozioł et al. [2020]; cited from earlier work.
Setting [12] is: HepG2 supernatant, LPS, 10–40 μM, ELISA.

For the compound `CC1(C)CC1c1cc2ccc(O)cc2oc1=O` (racemic) [(±)-1, (±)-Rutacycoumarin A], the “MAO-B inhibition (in words)” value in assay [1] is “potently inhibited”. For the same compound, in assay [2], the “LPS-elevated ALT level” value is reported as “significant suppression” and the “LPS-elevated AST level” value was “significant suppression”. Also, the “LPS-induced inflammatory response (pro-inflammatory cytokines)” value in assay [3] is recorded as “significant suppression”.

Regarding `COc1cc2cc(C3CC3(C)C)c(=O)oc2cc1O` (racemic) [(±)-2, (±)-Rutacycoumarin B], the “MAO-B inhibition (in words)” value in assay [1] is listed as “potently inhibited”. Moreover, in assay [2], the “LPS-elevated ALT level” value was “significant suppression” and the “LPS-elevated AST level” value is “significant suppression”. The “LPS-induced inflammatory response (pro-inflammatory cytokines)” value in [3] was “significant suppression”. Also, in assay [3] (setting [12]), the IL-4 level result is “dose-dependently restored”, the IL-10 level entry is on record as “dose-dependently restored” and the TNF-α expression entry is “suppressed”.

For orientation: IC50 means the concentration at which inhibition is half-maximal. With `O=C(Oc1ccc2ccc(=O)oc2c1)C(O)c1ccccc1` (stereo not shown) [2-oxo-2H-chromen-7-yl 2-hydroxy-2-phenylacetate], the selectivity index in assay [4] (hMAO-B) is 8.55. The IC50 in assay [4] was 10.32 ± 0.044 µM.

Consider `O=Cc1cc2ccc(=O)oc2cc1O` [6-formyl umbelliferone], for which, in [5], the “isoform selectivity (in words)” value is listed as “selectivity for hMAO-A versus hMAO-B” and the IC50 was 3.23 µM. For the same compound, the IC50 in [6] is 15.3 µM. The “mode of hMAO inhibition” value in assay [7] was “competitive”.

On to `O=Cc1c(O)ccc2ccc(=O)oc12` [8-formyl umbelliferone], for which the “isoform selectivity (in words)” value in assay [5] is given as “selectivity for hMAO-A versus hMAO-B”. Besides, in assay [7], the “mode of hMAO inhibition” value is on record as “competitive”.

For the compound `C#CCN(C)CCCOc1ccc(Cl)cc1Cl` [clorgyline], the MAO inhibition in [8] is given as > 99%.

Turning to `O=c1ccc2cc(O)c(O)cc2o1` [esculetin], the “isoform selectivity (in words)” value in assay [5] is listed as “selectivity for hMAO-A versus hMAO-B”.

In the case of `Cn1c(-c2ccc3c(c2)OCO3)cc(=O)c2ccccc21` [graveoline], the hepatoprotective effect result in assay [9] is “attenuates liver injury”.

Turning to `C=CC(C)(C)c1cc2cc3c(cc2oc1=O)OC(C(C)(C)OC(C)=O)C3` (stereo not shown) [rutamarin], the “inhibition rate of human MAO-B” value in [10] is given as 95.26%. Also, in [11], the “inhibition of MAO-A” value is recorded as 25.15%.

For `COc1cc2ccc(=O)oc2cc1O` [scopoletin], the “isoform selectivity (in words)” value in assay [5] is recorded as “selectivity for hMAO-A versus hMAO-B”.

Consider `C#CCN(C)[C@H](C)Cc1ccccc1` [selegiline], for which, in assay [8], the MAO inhibition is recorded as > 99%.

Regarding `O=C(O)c1cc2ccc(=O)oc2cc1O` [umbelliferone-6-carboxylic acid], the “isoform selectivity (in words)” value in [5] is on record as “selectivity for hMAO-A versus hMAO-B”.

Regarding `O=c1ccc2ccc(O)cc2o1` [umbelliferone], the “isoform selectivity (in words)” value in assay [5] is on record as “selectivity for hMAO-A versus hMAO-B”.
